Consider 4 compounds from ChEMBL document CHEMBL5055681, “Optimized protocols for assessing libraries of poorly soluble sortase A inhibitors for antibacterial activity against medically-relevant bacteria, toxicity and enzyme inhibition” (Bioorg Med Chem, 2021).

≈ marks a conversion by molar mass, not a printed value. Calls of active or inactive are those of the source. No cut-off for these calls is given here.

The nature of data set [1]: Solubility of the compound in 5% DMSO in MHB assessed as precipitation at up to 500 ug/ml measured over 24 hrs. The data set is classed as physicochemical. As to conditions: dose < 500 µg/ml.
Data set [2] relates to Staphylococcus aureus. In words: Antimicrobial activity against Staphylococcus aureus ATCC 25923 assessed as bacterial growth inhibition measured after 24 hrs by resazurin dye based broth microdilution method. The data set is classed as functional.
In data set [3] the test system is Staphylococcus aureus. Briefly: Antimicrobial activity against Staphylococcus aureus ATCC 25923 assessed as bacterial growth inhibition measured after 24 hrs by CLSI based agar dilution method. The data set is classed as functional.
In data set [4] the test system is Staphylococcus aureus. Briefly: Antimicrobial activity against Staphylococcus aureus ATCC 25923 assessed as zone of inhibition at 500 ug/ml measured after 24 hrs by disc diffusion method. The data set is classed as functional. For orientation: In agar diffusion tests the substance spreads into inoculated agar from a disc or well.
For data set [5], the system named is Staphylococcus aureus. In words: Antimicrobial activity against Staphylococcus aureus MRSA ATCC 43300 assessed as bacterial growth inhibition measured after 24 hrs by resazurin dye based broth microdilution method. The data set is classed as functional. (In general: Alamar Blue is a resazurin reagent that responds to reducing activity.)
The next data set deals with Escherichia coli. In words: Antimicrobial activity against Escherichia coli ATCC 25922 assessed as bacterial growth inhibition measured after 24 hrs by resazurin dye based broth microdilution method. The data set is classed as functional.
Data set [6] in a line: Inhibition of Staphylococcus aureus sortase A using Abz-LPETGK(Dnp)-NH2 fluorescent peptide as a substrate assessed as substrate cleavage measured over 60 mins by FRET assay.
The test system of data set [7] is HEK293. Briefly: Cytotoxicity against HEK293 cells assessed as reduction in cell viability at 62.5 to 2000 ug/ml measured after 24 hrs by resazurin dye based cell viability assay. As to conditions: human, hek293, 24 h, dose 62.5-2000 µg/ml.
Data set [8] can be described thus: Ratio of MIC for antimicrobial activity against Staphylococcus aureus ATCC 25923 to IC50 for inhibition of Staphylococcus aureus sortase A using Abz-LPETGK(Dnp)-NH2 fluorescent peptide as substrate. The data set is classed as toxicity.
Another data set relates to Pseudomonas aeruginosa. Briefly: Antimicrobial activity against Pseudomonas aeruginosa ATCC 27853 assessed as bacterial growth inhibition measured after 24 hrs by resazurin dye based broth microdilution method. As to conditions: ATCC 27853, 24 h.
Data set [9] deals with Staphylococcus aureus. In words: Antimicrobial activity against Staphylococcus aureus ATCC 25923 assessed as zone of inhibition at 250 ug/ml measured after 24 hrs by disc diffusion method. The data set is classed as functional, organism-based. As to conditions: dose 250.0 µg/ml.
Data set [10] can be described thus: Solubility of the compound in 5% DMSO in MHB assessed as precipitation at up to 2.0 ug/ml measured over 24 hrs. As to conditions: dose < 2 µg/ml. The data set is classed as physicochemical.
Data set [11] relates to HEK293. Briefly: Cytotoxicity against HEK293 cells assessed as reduction in cell viability at 31.3 to 1000 ug/ml measured after 24 hrs by resazurin dye based cell viability assay. Particulars: human, hek293, 24 h, dose 31.3-1000 µg/ml.
Data set [12] is described as follows: Solubility of the compound in 5% DMSO in MHB assessed as precipitation at up to 3.9 ug/ml measured over 24 hrs. The data set is classed as physicochemical. Particulars: dose < 3.9 µg/ml.
Data set [13] concerns Staphylococcus aureus. Briefly: Antimicrobial activity against Staphylococcus aureus ATCC 25923 assessed as zone of inhibition at 125 ug/ml measured after 24 hrs by disc diffusion method. As to conditions: dose 125.0 µg/ml. The data set is classed as functional, organism-based.

Take `COc1cc(/C=C/C(=O)CC(=O)/C=C/c2ccc(O)c(OC)c2)ccc1O` [CURCUMIN]: the solubility result in data set [1] is “Insoluble”. The MIC in the data set with Staphylococcus aureus [2], in the data set on Staphylococcus aureus [3], with Staphylococcus aureus [5], with Escherichia coli and in the data set with Pseudomonas aeruginosa was 250 µg/mL (≈ 679 µM) each time. For the same compound, in the data set on Staphylococcus aureus [4] (dose 500.0 µg/ml), the outcome was Active. The IC50 (commonly the point on the concentration scale where inhibition reaches its midpoint) in data set [6] worked out at 42.2 µg/mL (≈ 115 µM). Moreover, the Activity entry in the data set with HEK293 [7] is listed as “Toxic”. Further, the Ratio in [8] is on record as 7.1.
`O=c1c(O)c(-c2ccc(O)c(O)c2)oc2cc(O)cc(O)c12` [QUERCETIN]: in [1], the solubility entry is “Insoluble”. Besides, the minimal inhibitory concentration (MIC) in the data set with Staphylococcus aureus [2], in the data set with Staphylococcus aureus [3], with Staphylococcus aureus [5], in the data set on Escherichia coli and in the data set with Pseudomonas aeruginosa was 250 µg/mL (≈ 827 µM) throughout. In addition, in the data set on Staphylococcus aureus [9], the outcome was Active. Further, the IC50 in [6] amounted to 35.1 µg/mL (≈ 116 µM). In the data set on HEK293 [7], the Activity entry was “Non-Toxic”. The Ratio in data set [8] was found to be 6.
`O=C(/C=C/c1ccccc1)c1ccccc1` [CHALCONE]: the solubility result in data set [10] is “Soluble”. The MIC (as a rule, the lowest concentration that inhibits growth of the organism) in the data set on Staphylococcus aureus [2] stood at 125 µg/mL (≈ 600 µM); with Staphylococcus aureus [3], 125 µg/mL (≈ 600 µM); in the data set with Staphylococcus aureus [5], 125 µg/mL (≈ 600 µM); in the data set on Escherichia coli, 500 µg/mL (≈ 2400 µM); with Pseudomonas aeruginosa, 500 µg/mL (≈ 2400 µM). Further, the outcome with Staphylococcus aureus [9] was Active. In addition, the zone of inhibition at 500 µg/mL in the data set with Staphylococcus aureus [4] (read-out: DIZ) was found to be 16 mm. The IC50 in data set [6] was 25.2 µg/mL (≈ 121 µM). Moreover, in the data set with HEK293 [11], the Activity entry is recorded as “Toxic”. The Ratio in data set [8] was 5.
In the case of `COc1ccc2cc3[n+](cc2c1OC)CCc1cc2c(cc1-3)OCO2` [BERBERINE], the solubility result in data set [12] was “Soluble”. In addition, the minimal inhibitory concentration (MIC) in the data set with Staphylococcus aureus [2] was 125 µg/mL; with Staphylococcus aureus [3] it was 125 µg/mL; in the data set on Staphylococcus aureus [5] it was 125 µg/mL; with Escherichia coli it was 250 µg/mL; in the data set with Pseudomonas aeruginosa it was 500 µg/mL. Also, the result in the data set on Staphylococcus aureus [13] was Active. Besides, the IC50 in [6] was determined as 6.9 µg/mL. For the same compound, the Activity entry with HEK293 [11] is “Non-Toxic”. For the same compound, in [8], the Ratio is given as 18.1.
